Data on 1 compound can be found in PMC5636118, “Recombinant laccase from Pediococcus acidilactici CECT 5930 with ability to degrade tyramine” (PLoS ONE, 2017).

In the assay the target is T1, Lpa5930; P. acidilactici CECT 5930 laccase (D2EK17 protein) (Pediococcus acidilactici, UniProt Z9B926UHL0).
T1 construct: pET28a, E. coli BL21(DE3)/pGro7; ~60 kDa by SDS-PAGE; D2EK17 is the UniProt entry of the strain 7_4 homologue
T1 sequence (Z9B926UHL0 1-477): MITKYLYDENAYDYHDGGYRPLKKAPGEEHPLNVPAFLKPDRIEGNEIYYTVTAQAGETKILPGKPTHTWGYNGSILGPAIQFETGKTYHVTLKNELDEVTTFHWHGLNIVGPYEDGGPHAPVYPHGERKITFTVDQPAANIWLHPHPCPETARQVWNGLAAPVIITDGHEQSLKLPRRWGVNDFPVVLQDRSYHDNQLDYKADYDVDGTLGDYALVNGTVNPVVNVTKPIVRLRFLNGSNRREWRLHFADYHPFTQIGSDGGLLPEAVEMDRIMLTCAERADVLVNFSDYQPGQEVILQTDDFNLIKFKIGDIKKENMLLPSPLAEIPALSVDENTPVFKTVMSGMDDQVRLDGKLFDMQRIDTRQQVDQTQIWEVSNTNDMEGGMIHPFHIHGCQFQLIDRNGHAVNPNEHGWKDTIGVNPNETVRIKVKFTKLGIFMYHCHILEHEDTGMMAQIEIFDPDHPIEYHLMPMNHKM
Briefly: ABTS oxidation, absorbance at […] nm, Michaelis-Menten fit. The assay is classed as biochemical. The following applies: acetate buffer pH 4.0, 28°C; apparent Km (abstract).

`CCn1c(=NN=c2sc3cc(S(=O)(=O)O)ccc3n2CC)sc2cc(S(=O)(=O)O)ccc21` [ABTS, 2,2′-azino-bis(3-ethylbenzothiazoline-6-sulfonic acid)]: the Michaelis constant (Km) was found to be 1700 µM.

The term Km denotes the substrate concentration at which the rate is half of its maximum.
